Reference: patent US20230081720A1, “MCL-1 INHIBITOR ANTIBODY-DRUG CONJUGATES AND METHODS OF USE” (NOVARTIS AG, priority 2019, published 2023)
Where a name gives a salt, the structure may show the parent alone. Read-outs that look alike come from different tables or passages of the source.

What was measured:
NOMO-1 = format: cell-based
Description: (§1) Cell lines were cultured in media that is optimal for their growth at 5% CO2, 37° C. in a tissue culture incubator. Prior to seeding for the proliferation assay, the cells were split at least 2 days before the assay to ensure optimal growth density. […] Cell viability and cell density were determined using a cell counter (Vi-Cell XR Cell Viability Analyzer, Beckman Coulter). […] Cells were seeded at a density of 1,000 cells per well in 45 μL of standard growth media. Plates were incubated at 5% CO2, 37° C. overnight in a tissue culture incubator. […] Each drug concentration was tested in quadruplets. […] Plates were incubated at room temperature for 10 minutes to stabilize luminescent signals prior to reading using a luminescence reader (EnVision Multilabel Plate Reader, PerkinElmer). To evaluate the effect of the drug treatments, luminescent counts from wells containing untreated cells (100% viability) were used to normalize treated samples.

EOL-1 = format: cell-based
Description: as §1

[1] = CD74 ADC with the named linker-payload, 5 days
[2] = CD74 ADC with the named linker-payload, 5 days, read-out: NOMO-1 IC50
[3] = CD74 ADC with the named linker-payload, 5 days, read-out: EOL-1 IC50

Row | Compound | NOMO-1 Amax (NOMO-1; [1]) | IC50 (NOMO-1; [2]) [nM] | EOL-1 Amax (EOL-1; [1]) | IC50 (EOL-1; [3]) [nM] | IC50 (NOMO-1) [nM] | IC50 (EOL-1) [nM]
1 | COc1ccccc1-c1nccc(COc2ccccc2C[C@@H](Oc2ncnc3sc(-c4ccc(F)cc4)c(-c4ccc(OCCN5CC[N+](C)(Cc6ccc(NC(=O)[C@H](CCCNC(N)=O)NC(=O)[C@@H](NC(=O)CCOCCN7C(=O)C=CC7=O)C(C)C)cc6COCc6cn(CCOC(=O)NS(=O)(=O)NCCOCCOCCOCCC(=O)O)nn6)CC5)c(Cl)c4C)c23)C(=O)O)n1 [L60-P1, trifluoroacetate] | 76.94 | 2.62 | 79.04 | 0.535 |  | 
2 | COc1ccccc1-c1nccc(COc2ccccc2C[C@@H](Oc2ncnc3sc(-c4ccc(F)cc4)c(-c4ccc(OCCN5CC[N+](C)(Cc6ccc(NC(=O)[C@H](CCCNC(N)=O)NC(=O)[C@@H](NC(=O)CCOCCN7C(=O)C=CC7=O)C(C)C)cc6CN(C)C(=O)CN(C)C(=O)CN(C)C(=O)CN(C)C(=O)CN(C)C(=O)CN(C)C(=O)CN(C)C(=O)CN(C)C(=O)CN(C)C(=O)CN(C)C(=O)CN(C)C(=O)CN(C)C(=O)CN(C)C(=O)CCC(=O)O)CC5)c(Cl)c4C)c23)C(=O)O)n1 [L35-P1] | 62.73 |  | 75.56 |  | 6.9 | 0.894
3 | COc1ccccc1-c1nccc(COc2ccccc2C[C@@H](Oc2ncnc3sc(-c4ccc(F)cc4)c(-c4ccc(OCCN5CC[N+](C)(Cc6ccc(NC(=O)[C@H](CCCNC(N)=O)NC(=O)[C@@H](NC(=O)CCOCCN7C(=O)C=CC7=O)C(C)C)cc6COCc6cn(CCOC(=O)NS(=O)(=O)NCCOCCO[C@@H]7O[C@H](CO)[C@@H](O)[C@H](O)[C@H]7O)nn6)CC5)c(Cl)c4C)c23)C(=O)O)n1 [L63-P1, trifluoroacetate] | 61.25 | 0.714 |  |  |  | 
4 | COc1ccccc1-c1nccc(COc2ccccc2C[C@@H](Oc2ncnc3sc(-c4ccc(F)cc4)c(-c4ccc(OCCN5CC[N+](C)(Cc6ccc(NC(=O)[C@H](CCCNC(N)=O)NC(=O)[C@@H](NC(=O)CCOCCN7C(=O)C=CC7=O)C(C)C)cc6CN(C)C(=O)[C@H](CCC(=O)O)NC(=O)CS(=O)(=O)O)CC5)c(Cl)c4C)c23)C(=O)O)n1 [L71-P1, 4-(2-(4-(4-((R)-1-carboxy-2-(2-((2-(2-methoxyphenyl)pyrimidin-4-yl)methoxy)phenyl)ethoxy)-6-(4-fluorophenyl)thieno[2,3-d]pyrimidin-5-yl)-2-chloro-3-methylphenoxy)ethyl)-1-(2-(((S)-4-carboxy-N-methyl-2-(2-sulfoacetamido)butanamido)methyl)-4-((S)-2-((S)-2-(3-(2-(2,5-dioxo-2,5-dihydro-1H-pyrrol-1-yl)ethoxy)propanamido)-3-methylbutanamido)-5-ureidopentanamido)benzyl)-1-methylpiperazin-1-ium] | 53.62 | 9.82 | 93.09 | 0.341 |  | 
5 | COc1ccccc1-c1nccc(COc2ccccc2C[C@@H](Oc2ncnc3sc(-c4ccc(F)cc4)c(-c4ccc(OCCN5CC[N+](C)(Cc6ccc(NC(=O)[C@H](CCCNC(N)=O)NC(=O)[C@@H](NC(=O)CCOCCN7C(=O)C=CC7=O)C(C)C)cc6CN(C)C(=O)[C@H](CCCCNC(=O)CS(=O)(=O)O)NC(=O)CS(=O)(=O)O)CC5)c(Cl)c4C)c23)C(=O)O)n1 [L78-P1, 4-(2-(4-(4-((R)-1-carboxy-2-(2-((2-(2-methoxyphenyl)pyrimidin-4-yl)methoxy)phenyl)ethoxy)-6-(4-fluorophenyl)thieno[2,3-d]pyrimidin-5-yl)-2-chloro-3-methylphenoxy)ethyl)-1-(4-((S)-2-((S)-2-(3-(2-(2,5-dioxo-2,5-dihydro-1H-pyrrol-1-yl)ethoxy)propanamido)-3-methylbutanamido)-5-ureidopentanamido)-2-(((S)-N-methyl-2,6-bis(2-sulfoacetamido)hexanamido)methyl)benzyl)-1-methylpiperazin-1-ium] | 53.4 | 3.73 | 87.22 | 0.43 |  | 
6 | COc1ccccc1-c1nccc(COc2ccccc2C[C@@H](Oc2ncnc3sc(-c4ccc(F)cc4)c(-c4ccc(OCCN5CC[N+](C)(Cc6ccc(NC(=O)[C@H](CCCNC(N)=O)NC(=O)[C@@H](NC(=O)CCOCCN7C(=O)C=CC7=O)C(C)C)cc6COCc6cn(CCOC(=O)NS(=O)(=O)NCCOCCOCCO[C@@H]7O[C@H](CO)[C@@H](O)[C@H](O)[C@H]7O)nn6)CC5)c(Cl)c4C)c23)C(=O)O)n1 [L62-P1, trifluoroacetate] | 65.18 | 3.41 | 83.03 | 0.771 |  | 
7 | COc1ccccc1-c1nccc(COc2ccccc2C[C@@H](Oc2ncnc3sc(-c4ccc(F)cc4)c(-c4ccc(OCCN5CC[N+](C)(Cc6ccc(NC(=O)[C@H](CCCNC(N)=O)NC(=O)[C@@H](NC(=O)CCOCCN7C(=O)C=CC7=O)C(C)C)cc6CN(C)C(=O)C[C@H](NC(=O)CS(=O)(=O)O)C(=O)O)CC5)c(Cl)c4C)c23)C(=O)O)n1 [L79-P1, 4-(2-(4-(4-((R)-1-carboxy-2-(2-((2-(2-methoxyphenyl)pyrimidin-4-yl)methoxy)phenyl)ethoxy)-6-(4-fluorophenyl)thieno[2,3-d]pyrimidin-5-yl)-2-chloro-3-methylphenoxy)ethyl)-1-(2-(((S)-3-carboxy-N-methyl-3-(2-sulfoacetamido)propanamido)methyl)-4-((S)-2-((S)-2-(3-(2-(2,5-dioxo-2,5-dihydro-1H-pyrrol-1-yl)ethoxy)propanamido)-3-methylbutanamido)-5-ureidopentanamido)benzyl)-1-methylpiperazin-1-ium] | 56.07 |  | 91.3 |  | 3.14 | 0.492
8 | COCCOCCOCCOCCOCCOCCOCCOCCOCCOCCOCCOCCC(=O)N[C@@H](CCC(=O)O)C(=O)N(C)Cc1cc(NC(=O)[C@H](CCCNC(N)=O)NC(=O)[C@@H](NC(=O)CCOCCN2C(=O)C=CC2=O)C(C)C)ccc1C[N+]1(C)CCN(CCOc2ccc(-c3c(-c4ccc(F)cc4)sc4ncnc(O[C@H](Cc5ccccc5OCc5ccnc(-c6ccccc6OC)n5)C(=O)O)c34)c(C)c2Cl)CC1 [L72-P1] | 57.68 |  | 109.8 | 0.386 |  | 
9 | COc1ccccc1-c1nccc(COc2ccccc2C[C@@H](Oc2ncnc3sc(-c4ccc(F)cc4)c(-c4ccc(OCCN5CC[N+](C)(Cc6ccc(NC(=O)[C@H](CCCNC(N)=O)NC(=O)[C@@H](NC(=O)CCOCCN7C(=O)C=CC7=O)C(C)C)cc6CN(C)C(=O)C[C@H](NC(=O)OC6O[C@H](C(=O)O)[C@@H](O)[C@H](O)[C@H]6O)C(=O)O)CC5)c(Cl)c4C)c23)C(=O)O)n1 (stereo partly drawn) [L69-P1] | 95.03 | 14.8 | 159.6 | 0.704 |  | 
10 | COc1ccccc1-c1nccc(COc2ccccc2C[C@@H](Oc2ncnc3sc(-c4ccc(F)cc4)c(-c4ccc(OCCN5CC[N+](C)(Cc6ccc(NC(=O)[C@H](CCCNC(N)=O)NC(=O)[C@@H](NC(=O)CCOCCN7C(=O)C=CC7=O)C(C)C)cc6CN(C)C(=O)[C@H](N)CS(=O)(=O)O)CC5)c(Cl)c4C)c23)C(=O)O)n1 [L86-P1] | 74.52 |  | 105.5 |  | 7.47 | 0.721
11 | COc1ccccc1-c1nccc(COc2ccccc2C[C@@H](Oc2ncnc3sc(-c4ccc(F)cc4)c(-c4ccc(OCCN5CC[N+](C)(Cc6ccc(NC(=O)[C@H](CCCNC(N)=O)NC(=O)[C@@H](NC(=O)CCOCCN7C(=O)C=CC7=O)C(C)C)cc6CN(C)C(=O)C[C@H](NC(=O)[C@@H]6O[C@H](O)[C@@H](O)[C@H](O)[C@H]6O)C(=O)O)CC5)c(Cl)c4C)c23)C(=O)O)n1 [L68-P1] | 91.25 | 6.91 | 127.3 | 0.788 |  | 
12 | COc1ccccc1-c1nccc(COc2ccccc2C[C@@H](Oc2ncnc3sc(-c4ccc(F)cc4)c(-c4ccc(OCCN5CC[N+](C)(Cc6ccc(NC(=O)[C@H](CCCNC(N)=O)NC(=O)[C@@H](NC(=O)CCOCCN7C(=O)C=CC7=O)C(C)C)cc6CN(C)C(=O)CN(CC(=O)O)CC(=O)O)CC5)c(Cl)c4C)c23)C(=O)O)n1 [L67-P1, 1-(2-((2-(bis(carboxymethyl)amino)-N-methylacetamido)methyl)-4-((S)-2-((S)-2-(3-(2-(2,5-dioxo-2,5-dihydro-1H-pyrrol-1-yl)ethoxy)propanamido)-3-methylbutanamido)-5-ureidopentanamido)benzyl)-4-(2-(4-(4-((R)-1-carboxy-2-(2-((2-(2-methoxyphenyl)pyrimidin-4-yl)methoxy)phenyl)ethoxy)-6-(4-fluorophenyl)thieno[2,3-d]pyrimidin-5-yl)-2-chloro-3-methylphenoxy)ethyl)-1-methylpiperazin-1-ium] | 79.39 |  | 119.3 |  | 2.49 | 0.261
